Values after ≈ are worked out from the molar mass of the structure shown.
How the values were obtained:
Format in all cases: functional
[1] = system: Staphylococcus aureus; assay: Antimicrobial activity against methicillin-resistant Staphylococcus aureus ATCC 43300 by broth microdilution method
[2] = system: Staphylococcus epidermidis; assay: Antimicrobial activity against methicillin-resistant Staphylococcus epidermidis ATCC 51625 by broth microdilution method
[3] = system: Enterococcus faecium; assay: Antimicrobial activity against vancomycin/multidrug-resistant Enterococcus faecium ATCC 51559 by broth microdilution method
[4] = system: Staphylococcus aureus; assay: Antimicrobial activity against methicillin-sensitive Staphylococcus aureus Smith ATCC 19636 by broth microdilution method
[5] = system: Staphylococcus aureus; assay: Antimicrobial activity against vancomycin-intermediate Staphylococcus aureus CDC HIP 5836 by broth microdilution method
[6] = system: Staphylococcus aureus; assay: Antimicrobial activity against methicillin-sensitive Staphylococcus aureus Smith ATCC 19636 by tube dilution method; details: Staphylococcus aureus, Smith; read-out: MIC
[7] = system: Enterococcus faecalis; assay: Antimicrobial activity against vancomycin-sensitive Enterococcus faecalis ATCC 29212 by broth microdilution method

`CCCCCCCCCCCCCCC(=O)N[C@@H](Cc1ccccc1)C(=O)N[C@@H](CC(=O)O)C(=O)N[C@H]1CNC(=O)[C@@H]2CCCN2C(=O)[C@H]([C@H](C)CC)NC(=O)[C@H]([C@@H](C)O)NC(=O)CNC(=O)[C@H](CC(=O)O)NC(=O)CNC(=O)C(CC(=O)O)NC(=O)CNC(=O)[C@@H]2CCCCN2C1=O` (single isomer, unassigned) was tested, and the MIC [1] was 4 µg/mL (≈ 2.86 µM), the MIC [2] was 4 µg/mL (≈ 2.86 µM) and the MIC [3] was 8 µg/mL (≈ 5.73 µM). The MIC [4] was 4 µg/mL (≈ 2.86 µM), the MIC [5] was 32 µg/mL (≈ 22.9 µM) and the MIC [6] was 4 µg/mL (≈ 2.86 µM). For the same molecule, the MIC [7] was 4 µg/mL (≈ 2.86 µM).
